{
  "source": "patent US20160031817A1",
  "about": "“3-PIPERIDONE COMPOUNDS AND THEIR USE AS NEUROKININ-1 (NK1) RECEPTOR ANTAGONISTS” (NANYANG TECHNOLOGICAL UNIVERSITY, priority 2013, published 2016)",
  "data": [
    {"smiles": "Oc1ccc(OC(F)(F)F)cc1C1COC2(CCCNC2c2ccccc2)C1", "note": "(racemic) [rac-3, rac-2-(6-phenyl-1-oxa-7-azaspiro[4.5]decan-3-yl)-4-(trifluoromethoxy)phenol]", "values": [
      {"measurement": "melting point", "result": "203 to 204 °C (dec.)"}
    ]}
  ]
}
